Measured values published in doi:10.1101/2021.07.02.450968v1 (biorxiv, 2021).

What was measured:
[1] = molecular target: T1, FABP2 (intestine, I-FABP) (Homo sapiens, UniProt P12104); test: fluorescence polarisation competition vs BODIPY C4,C9; format: binding
T1 sequence (P12104 2-132): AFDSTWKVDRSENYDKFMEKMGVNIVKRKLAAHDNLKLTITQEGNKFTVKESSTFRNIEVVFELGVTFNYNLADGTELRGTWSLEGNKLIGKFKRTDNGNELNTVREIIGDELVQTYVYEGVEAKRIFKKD

FABP3 (heart, H-FABP) [2] = molecular target: T2, FABP3 (heart, H-FABP) (Homo sapiens, UniProt P05413); test: as above; format: binding
FABP1 (liver, L-FABP) [3] = molecular target: T3, FABP1 (liver, L-FABP) (Homo sapiens, UniProt P07148); test: as above; format: binding
T3 sequence (P07148 1-127): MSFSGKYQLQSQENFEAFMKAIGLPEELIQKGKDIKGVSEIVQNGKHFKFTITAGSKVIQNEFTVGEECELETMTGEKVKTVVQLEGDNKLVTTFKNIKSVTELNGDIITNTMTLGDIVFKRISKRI

[4] = molecular target: T4, FABP4 (adipocyte, A-FABP) (Homo sapiens, UniProt P15090); test: as above; format: binding
[5] = molecular target: T4, FABP4 (adipocyte, A-FABP); test: fluorescence polarisation saturation binding
[6] = molecular target: T5, FABP5 (brain, B-FABP or epidermal, E-FABP) (Homo sapiens, UniProt Q01469); test: fluorescence polarisation saturation binding
FABP3 (heart, H-FABP) [7] = molecular target: T2, FABP3 (heart, H-FABP); test: fluorescence polarisation saturation binding
FABP1 (liver, L-FABP) [8] = molecular target: T3, FABP1 (liver, L-FABP); test: fluorescence polarisation saturation binding
[9] = molecular target: T1, FABP2 (intestine, I-FABP); test: fluorescence polarisation saturation binding
[10] = molecular target: T5, FABP5 (brain, B-FABP or epidermal, E-FABP); test: fluorescence polarisation competition vs BODIPY C4,C9; format: binding
GR (α sub-type) = molecular target: T6, GR (α sub-type) (Homo sapiens, UniProt P04150); test: GRE-SEAP reporter gene assay, COS-7; format: cell-based; conditions: 24 h agonist treatment; nominal EC80 concentration from reporter curves
T6 sequence (P04150 1-777): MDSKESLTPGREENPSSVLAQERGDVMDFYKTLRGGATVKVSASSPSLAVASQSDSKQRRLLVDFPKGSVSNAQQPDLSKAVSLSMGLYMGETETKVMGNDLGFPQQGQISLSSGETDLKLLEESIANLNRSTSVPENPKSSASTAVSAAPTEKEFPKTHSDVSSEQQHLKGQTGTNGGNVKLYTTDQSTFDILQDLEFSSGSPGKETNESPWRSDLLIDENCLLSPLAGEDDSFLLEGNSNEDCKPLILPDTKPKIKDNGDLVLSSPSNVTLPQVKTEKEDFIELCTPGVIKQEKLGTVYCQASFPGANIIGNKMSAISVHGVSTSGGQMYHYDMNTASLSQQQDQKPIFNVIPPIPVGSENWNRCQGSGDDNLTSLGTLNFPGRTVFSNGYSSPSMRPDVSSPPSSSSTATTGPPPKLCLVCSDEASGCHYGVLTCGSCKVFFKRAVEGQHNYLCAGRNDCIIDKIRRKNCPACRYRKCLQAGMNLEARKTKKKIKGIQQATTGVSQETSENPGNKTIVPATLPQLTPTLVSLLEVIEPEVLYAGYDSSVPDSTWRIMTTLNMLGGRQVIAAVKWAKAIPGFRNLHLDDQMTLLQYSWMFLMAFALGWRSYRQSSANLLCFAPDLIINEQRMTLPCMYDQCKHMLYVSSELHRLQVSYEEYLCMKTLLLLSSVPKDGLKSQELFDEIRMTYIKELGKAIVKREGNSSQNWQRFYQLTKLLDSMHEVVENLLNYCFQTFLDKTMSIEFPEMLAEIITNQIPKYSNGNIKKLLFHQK

T4 sequence (P15090 whole entry): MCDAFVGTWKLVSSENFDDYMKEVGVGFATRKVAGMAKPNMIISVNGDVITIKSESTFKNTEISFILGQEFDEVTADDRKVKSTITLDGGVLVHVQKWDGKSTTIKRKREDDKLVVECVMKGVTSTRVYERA
T5 sequence (Q01469 2-135): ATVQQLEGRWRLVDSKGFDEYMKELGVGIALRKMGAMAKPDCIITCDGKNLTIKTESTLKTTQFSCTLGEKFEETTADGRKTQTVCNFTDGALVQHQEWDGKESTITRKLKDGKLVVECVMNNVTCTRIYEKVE
T2 sequence (P05413 whole entry): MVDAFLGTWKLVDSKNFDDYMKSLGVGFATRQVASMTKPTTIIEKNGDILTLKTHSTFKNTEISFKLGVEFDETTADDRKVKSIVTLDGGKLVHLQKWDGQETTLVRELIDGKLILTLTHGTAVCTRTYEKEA

Ki [1] [µM]	Ki (FABP3 (heart, H-FABP) [2]) [µM]	Ki (FABP1 (liver, L-FABP) [3]) [µM]	Ki [4] [µM]	Kd [5] [µM]	Kd [6] [µM]	Kd (FABP3 (heart, H-FABP) [7]) [µM]	Kd (FABP1 (liver, L-FABP) [8]) [µM]	Kd [9] [µM]	Ki [10] [µM]	EC80 (GR (α sub-type))	SMILES
3.39	117	79.4	2000	–	–	–	–	–	–	–	C[C@H]1C[C@@H]2[C@H]([C@@H](O)C[C@@]3(C)[C@H]2CC[C@]3(O)C(=O)CO)[C@@]2(C)C=CC(=O)C=C12 [Methylprednisolone]
–	–	–	–	0.42	0.16	0.02	0.09	4.1	–	–	CCCCc1ccc2n1[B-](F)(F)[N+]1=C(CCCCCCCCC(=O)O)C=CC1=C2 [BODIPY 500/510 C4, C9]
16.6	107	302	977	–	–	–	–	–	129	–	C[C@]12CCC(=O)C=C1CC[C@@H]1[C@@H]2C(=O)C[C@@]2(C)[C@H]1CC[C@]2(O)C(=O)CO [Cortisone]
–	7.59	288	35.5	–	–	–	–	–	9.33	–	C[C@]12C=CC(=O)C=C1CC[C@@H]1[C@@H]2C(=O)C[C@@]2(C)[C@H]1CC[C@]2(O)C(=O)CO [Prednisone]
11	70.8	47.9	1150	–	–	–	–	–	–	~ 100 μM	C[C@]12C=CC(=O)C=C1CC[C@@H]1[C@@H]2[C@@H](O)C[C@@]2(C)[C@H]1CC[C@]2(O)C(=O)CO [Prednisolone]
–	0.0575	85.1	–	–	–	–	–	–	19.1	~ 10 μM	CCCC1O[C@@H]2C[C@H]3[C@@H]4CCC5=CC(=O)C=C[C@]5(C)[C@H]4[C@@H](O)C[C@]3(C)[C@]2(C(=O)CO)O1 (stereo partly drawn) [Budesonide]
–	7.76	38.9	120	–	–	–	–	–	21.9	~ 1 mM	C[C@]12CCC(=O)C=C1CC[C@@H]1[C@@H]2[C@@H](O)C[C@@]2(C)[C@H]1CC[C@]2(O)C(=O)CO [Hydrocortisone]
72.4	–	91.2	–	–	–	–	–	–	–	~ 10 μM	C[C@H]1C[C@H]2[C@@H]3CCC4=CC(=O)C=C[C@]4(C)[C@@]3(F)[C@@H](O)C[C@]2(C)[C@@]1(O)C(=O)CO [β-methasone]
–	5.62	27.5	74.1	–	–	–	–	–	–	~ 10 μM	C[C@@H]1C[C@H]2[C@@H]3CCC4=CC(=O)C=C[C@]4(C)[C@@]3(F)[C@@H](O)C[C@]2(C)[C@@]1(O)C(=O)CO [Dexamethasone]
